Measurements as given in patent US6380161B1, “Compositions for treating chemotherapy-resistant tumor cells and targeted chemotherapy compositions” (priority 1999, dated 2002).
“Also recorded” adds a separate entry of the source. Where two headings read alike, the source gives them in different places. Residues, ends and D or L forms follow the SMILES beside them. No end group written: not given here. *: point of attachment. X1 = COc1cccc2c1C(=O)c1c(O)c3c(c(O)c1C2=O)CC(O)(C(=O)CO)C[C@@H]3O[C@H]1C[C@H](N*)[C@H](O)[C@H](C)O1; Acm = CC(=O)NC*

How the values were obtained:
B16-F10 Melanoma = test: In vitro LD50 from dose response curves (ALAMAR BLUE cell viability); type: cell-based; details: dose at which half of the cells die
Lewis Lung Carcinoma = test: as above; type: cell-based; details: dose at which half of the cells die
Human Breast Carcinoma = test: as above; type: cell-based; details: dose at which half of the cells die
Wild-type CHO Cells = test: Cell viability / in vitro LD50 on wild-type CHO cells (ALAMAR BLUE); type: cell-based
Experimental: (§1) Doxorubicin and multidrug-resistant CHO cells were cultured using standard tissue culture conditions: 37° C., DMEM media, serum free conditions, with 5% CO2 for pH adjustment. The cells were treated for 24 hours with either doxorubicin or Dox-P, the peptide conjugate prepared in Example 1, at concentrations of 0.25, 0.5, 0.75, and 1.0 mM. Untreated cells were used as a negative control.
Cell viability was measured using the ALAMAR BLUE™ assay (available from Biosource International, Camarillo, Calif.). The assay quantitatively measures the proliferation of cell lines and can establish the relative cytotoxicity of chemical agents. The assay incorporates a fluorometric/colorimetric growth indicator based on detection of metabolic activity. The system incorporates an oxidation-reduction (redox) indicator that both fluoresces and changes color in response to chemical reduction of growth medium resulting from cell growth. This causes the redox indicator to change from its oxidized, non-fluorescent, blue form to its reduced, fluorescent, red form. Data can be collected using either fluorescence-based instrumentation (530-560 nm excitation wavelength and 590 nm emission wavelength) or absorbance-based instrumentation (570 nm and 600 nm). […]
The LD50, the dose at which half of the cells die, was calculated from Dox and Dox-P dose response curves for five different cell lines, as shown in Table 1.

[1] = system: Doxorubicin and multidrug-resistant CHO Cells; test: Cell viability / in vitro LD50 on drug-resistant CHO cells (ALAMAR BLUE); type: cell-based; details: 24 hours, 0.25, 0.5, 0.75 and 1.0 mM
Experimental: as §1
Cell viability was measured using the ALAMAR BLUE™ assay (available from Biosource International, Camarillo, Calif.). The assay quantitatively measures the proliferation of cell lines and can establish the relative cytotoxicity of chemical agents. The assay incorporates a fluorometric/colorimetric growth indicator based on detection of metabolic activity. The system incorporates an oxidation-reduction (redox) indicator that both fluoresces and changes color in response to chemical reduction of growth medium resulting from cell growth. This causes the redox indicator to change from its oxidized, non-fluorescent, blue form to its reduced, fluorescent, red form. Data can be collected using either fluorescence-based instrumentation (530-560 nm excitation wavelength and 590 nm emission wavelength) or absorbance-based instrumentation (570 nm and 600 nm).

Melanoma tumor cells = test: Melanoma tumor development (lung tumor colonies) in mice; type: in vivo; details: intraperitoneally 24 and 96 hours after tumor implantation, 18 μM/kg, versus buffer
Experimental: This experiment was designed to evaluate whether the conjugation of the peptide to doxorubicin altered its ability to prevent wild-type, nonresistant tumor development in mice. Melanoma tumor cells were injected into mice. The animals (5 in each group) were treated intraperitoneally 24 and 96 hours after tumor implantation with either buffer alone, Dox-P, the Cys(Acm)-Ser-Val-Thr-Cys(Acm)-Gly (SEQ ID NO: 6) peptide, or Dox, at a concentration of 18 μM/kg. The mice were sacrificed and the melanoma tumor colonies on the lung were counted. […] Additionally, the tumor colonies in the Dox-P and the Dox groups were 2-5 fold smaller than in the buffer group.

B16-F10 melanoma cells = test: Adhesion of B16-F10 melanoma cells to coated wells; type: cell-based; details: wells covered with 40 μg/ml
Experimental: An adhesion study was performed to evaluate the adhesion of B16-F10 melanoma cells (a nonresistant cell line) to doxorubicin and the doxorubicin-peptide conjugate of Example 1. In a 96 well plate, duplicate wells were covered with 40 μg/ml either TSP, Dox-P, the Cys(Acm)-Ser-Val-Thr-Cys(Acm)-Gly (SEQ ID NO: 6) peptide, Dox, the scrambled peptide Val-Cys-Thr-Gly-Ser-Cys (SEQ ID NO: 3), the Cys(Acm)Ser-Val-Thr-Cys-(Acm)-Gly (SEQ ID NO: 6) peptide with a d orientation, or 1% bovine serum albumin (BSA). The wells were dried out overnight and then blocked with BSA. 100 μl of a suspension containing 2×10^5 B16-F-10 melanoma cells were plated in the protein covered wells and incubated at 37° C. for 20 minutes to 1 hour. The non-adherent cells were removed and the wells were washed with a Hepes buffer. The adherent cells were fixed with 2.5% glutaraldehyde for 10 minutes and stained with 0.2% Giemsa. The stain was washed off and the cells were counted in a field of 1 mm square. Cells adhering to BSA were considered background.

[2] = system: Doxorubicin and multidrug-resistant CHO Cells; test: Coadministration of peptides and doxorubicin on resistant CHO cells; type: cell-based; details: peptide coadministered with doxorubicin, not linked
Experimental: Doxorubicin and multidrug-resistant CHO cells were treated with a 7 coadministration of peptides and doxorubicin. In this example the peptides were not linked to the doxorubicin, but were only administered at the same time.

[3] = mice, 68 mg/kg (same number of doxorubicin molecules as Dox 30 mg/kg), 3 mice treated

Molecule: COc1cccc2c1C(=O)c1c(O)c3c(c(O)c1C2=O)C[C@@](O)(C(=O)CO)C[C@@H]3O[C@H]1C[C@H](N)[C@H](O)[C@H](C)O1 [Dox, doxorubicin, reference compound]
- In Vitro LD50 (B16-F10 Melanoma): 0.30 mM
- In Vitro LD50 (Lewis Lung Carcinoma): 0.20 mM
- In Vitro LD50 (Human Breast Carcinoma): 1.0 mM
- In Vitro LD50 (Wild-type CHO Cells; Wild-type CHO Cells, dose at which half of the cells die): 1.0 mM
- Effect on drug-resistant CHO cell viability (dose response) [1]: negligible effect
- Melanoma tumor development (number of lung tumor colonies / lung metastasis) (Melanoma tumor cells): inhibit the development of lung metastasis; also recorded: effective at preventing tumor development
- Toxicity Results: survival (mice, 30 mg/kg, 3 mice treated): 3 mice died^1
- Toxicity Results: body weight change (mouse, in vivo, 30 mg/kg): significant weight loss

Molecule: COc1cccc2c1C(=O)c1c(O)c3c(c(O)c1C2=O)CC(O)(C(=O)CO)C[C@@H]3O[C@H]1C[C@H](NC(=O)CNC(=O)[C@H](CSCNC(C)=O)NC(=O)[C@@H](NC(=O)[C@@H](NC(=O)[C@H](CO)NC(=O)[C@H](CSCNC(C)=O)NC(C)=O)C(C)C)[C@@H](C)O)[C@H](O)[C@H](C)O1 (stereo partly drawn) [Dox-P] (Ac-C(Acm)SVTC(Acm)G-X1)
- Effect on wild-type CHO cell viability (Wild-type CHO Cells; 24 hours, 0.25-1.0 mM, compared with Dox alone): appears to function more effectively against wild-type CHO cells than Dox alone
- Effect on drug-resistant CHO cell viability (dose response) [1]: dramatic dose-response effect
- Adhesion of B16-F10 melanoma cells (B16-F10 melanoma cells): does not destroy its adhesive activity
- Melanoma tumor development (number of lung tumor colonies / lung metastasis) (Melanoma tumor cells): inhibit the development of lung metastasis; also recorded: effective at preventing tumor development
- Toxicity Results: body weight change [3]: some small weight gain
- Toxicity Results: survival [3]: 3 mice lived

Molecule: ASVTAR
- Effect of peptide on doxorubicin toxicity of resistant CHO cells [2]: shows a dose-response effect

Molecule: Cys(Acm)-Ser-Val-Thr-Cys(Acm)-Gly (C(Acm)SVTC(Acm)G) [thrombospondin-derived hexapeptide with cysteine sulfur protected by acetamidomethyl (Acm) groups]
- Melanoma tumor development (number of lung tumor colonies / lung metastasis) (Melanoma tumor cells): lower number of tumors than buffer alone
- Melanoma tumor development (number of lung tumor colonies / lung metastasis) (Melanoma tumor cells; listed as peptide): inhibit the development of lung metastasis
- Effect of peptide on doxorubicin toxicity of resistant CHO cells [2]: did not show any effect
